# Patent publication US11560596B2, “Method for expecting and diagnosing UQCRB-related disease” (Industry-Academic Cooperation Foundation, Yonsei University, priority 2015, dated 2023)
# System: UQCRB mutant cell strains MT1 and MT2
# Test: MTT colorimetric assay of cell growth after treatment with cholesterol synthesis inhibitors
# Type: cell-based
# Conditions: FIGS. 11 to 13
# Excerpt: FIG. 11 represents MTT colorimetric assay showing the cell growth of HEK293, MT1, and MT2 cells treated with a cholesterol inhibitor.
# FIG. 12 represents MTT colorimetric assay showing the cell growth of HEK293, MT1, and MT2 cells treated with a cholesterol inhibitor.
# FIG. 13 represents MTT colorimetric assay showing the cell growth of HEK293, MT1, and MT2 cells treated with a cholesterol inhibitor.
# For the purpose of verifying validity for selection of cholesterol metabolic process as a pathway in which UQCRB was participated, a cholesterol synthesis inhibitor was processed in UQCRB mutant cell strains to measure an effect that the cholesterol synthesis inhibitor affects growth of the UQCRB mutant cell strains, and the result thereof was shown in FIGS. 11 to 13.
row,SMILES,growth of the UQCRB mutant cell strains MT1 and MT2
1,CC[C@H](C)C(=O)O[C@H]1CCC=C2C=C[C@H](C)[C@H](CC[C@@H]3C[C@@H](O)CC(=O)O3)[C@H]21 [Mevastatin],inhibited
2,F/C(COc1ccc2c(c1)[nH]c1ccccc12)=C1/CN2CCC1CC2 [YM-53601],inhibited
